{"source": "patent US20230357313A1", "about": "“SERUM RESISTANT BIS-SULFHYDRYL SPECIFIC BIOTINYLATION REAGENT” (Miltenyi Biotec B.V. & Co. KG, priority 2022, published 2023)", "target": "T1, biotinidase (Homo sapiens, UniProt P43251)", "T1 construct": "from tissue", "T1 sequence (P43251 22-523)": "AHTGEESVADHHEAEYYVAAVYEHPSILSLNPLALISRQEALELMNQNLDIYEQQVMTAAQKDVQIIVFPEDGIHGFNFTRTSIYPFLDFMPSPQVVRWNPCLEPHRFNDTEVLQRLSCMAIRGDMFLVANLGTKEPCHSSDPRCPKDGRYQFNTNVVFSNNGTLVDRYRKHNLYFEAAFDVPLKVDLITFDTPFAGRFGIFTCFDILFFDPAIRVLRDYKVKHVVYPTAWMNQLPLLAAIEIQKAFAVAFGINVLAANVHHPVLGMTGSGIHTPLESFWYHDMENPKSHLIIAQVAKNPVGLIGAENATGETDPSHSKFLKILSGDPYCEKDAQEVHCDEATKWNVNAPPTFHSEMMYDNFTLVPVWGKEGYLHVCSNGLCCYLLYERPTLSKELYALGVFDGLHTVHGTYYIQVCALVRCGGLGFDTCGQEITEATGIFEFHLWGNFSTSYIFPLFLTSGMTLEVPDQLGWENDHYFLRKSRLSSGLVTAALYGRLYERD", "assay": "Biotinidase inhibitor experiment: MS9 anti-CD33 Fab in human serum with or without inhibitor, LC-MS", "format": "biochemical", "settings": "1 mM in human serum, 4 h at 37° C.", "procedure": "To verify that biotinidase, an enzyme found in the human body amongst other in human serum, causes the cleavage of the biotinamide bond an experiment was performed with a biotinidase inhibitor ((+) Biotin 4 Amidobenzoic Acid, Cayman, CAS. 102418-74-6). Therefore (+) Biotin 4 Amidobenzoic Acid was added at a concentration of 1 mM into the pre-incubation mix containing the human serum. As control no inhibitor was added. The anti-CD33 Fab with MS9 was pre-incubated for 4 hours at 37° C. Subsequently after the incubation the samples were purified via an IgG-CHI Affinity matrix as previously described.\nFIG. 5A and FIG. 5B show biotinidase as causative agent for instability of linker in non-heat inactivated serum. Biotinylated (MS9) anti-CD33 FAbs were incubated in freshly prepared human serum for 4 h at 37° C. in the presence (left panel) or absence (right panel) of 1 mM Biotin 4-amidobenzoic acid."}
{"smiles": "O=C(CCCC[C@@H]1SC[C@@H]2NC(=O)N[C@@H]21)Nc1ccc(C(=O)[O-])cc1.[Na+]", "note": "[Biotin 4-amidobenzoic acid, (+) Biotin 4 Amidobenzoic Acid]", "values": [{"measurement": "effect of biotinidase inhibitor on biotinamide bond degradation", "result": "protects the biotinamide bond from degradation"}]}
